Test system: COS-1 cells
Experiment: Anti-pTyr immunofluorescent staining of tyrosine phosphorylation in COS-1 cells
Format: cell-based, monkey
Experimental: COS-1, HeLa cells (Japanese Collection of Research Bioresources, Osaka), MCF-7 (provided by H. Saya), A431 (provided by M. N. Fukuda), HEK293 (provided by M. Tagawa), HCT116 (provided by T. Tomonaga), and SYF ([37]; provided by M. Okada and S. Nada) cells were cultured in Iscove's modified DME containing 5% fetal bovine serum (FBS). Cells were transiently transfected with 0.5 μg of plasmid vector using Trans IT Transfection reagent (Mirus) or with 1 μg of plasmid vector using linear polyethylenimine (25 kDa) (Polyscience, Inc.). For growth factor stimulation, COS-1 cells were starved under low serum conditions (0.05% FBS) for 24 h and restimulated with serum (5% FBS). For stimulation of endogenous SFKs, cells were treated with 3 mM Na3VO4 for 3 h, and SFK-mediated tyrosine phosphorylation was verified by treatment with 10 μM PP2 (SFK inhibitor; Calbiochem) or 100 nM wortmannin (PI3K inhibitor; Alomone Labs) for 21 h before Na3VO4 treatment. Na3VO4 was dissolved at 500 mM in 500 mM unbuffered HEPES before use. For preparation of stable transfectant clones, SYF cells transfected with c-Src-wt or Lyn-wt were selected in 333 μg/mL Zeocin (Invitrogen), and COS-1 cells were transfected with the BOSH2BGFP-N1 vector, which encodes GFP-tagged histone H2B ([39,40]; provided by H. Saya), were selected in 3 μg/mL blasticidin.
Confocal and Nomarski differential-interference-contrast images were obtained using a Fluoview FV500 confocal laser scanning microscope with a 40×1.00 NA oil and a 100×1.35 NA oil immersion objective (Olympus, Tokyo) and an LSM 510 confocal laser scanning microscope with a 63×1.40 NA oil immersion objective (Zeiss), as described. One planar (xy) section slice (0.6-μm thickness) is shown in all experiments. In brief, cells were fixed with 4% paraformaldehyde for 20 min, and permeabilized in phosphate-buffered saline (PBS) containing 0.1% saponin and 3% bovine serum albumin at room temperature. Cells were subsequently reacted with an appropriate primary antibody for 1 h, washed with PBS containing 0.1% saponin, stained with FITC- or TRITC-conjugated secondary antibody for 1 h. For DNA staining, cells were subsequently treated with 200 μg/ml RNase A for 1 h and 20 μg/ml propidium iodide (PI) for 30 min, and mounted with Prolong Antifade™ reagent (Molecular Probes). To ensure no bleed-through from the fluorescein signal into the red channel, fluorescein and rhodamine were independently excited at 488 nm and 543 nm, respectively. PI was excited at 488 or 543 nm. Emission signals were detected between 505 and 525 nm for fluorescein, at more than 560 nm for rhodamine and more than 610 nm for PI [44]. Composite figures were prepared using Photoshop 5.0 and Illustrator 9.0 software (Adobe). For nuclear staining with anti-pTyr, anti-ATF-2 pT69/71, and anti-histone H3K4me3 antibodies, cells were in situ extracted with 0.5% Triton X-100 at 4° C. for 3 min before fixation with 4% paraformaldehyde. For HP1α staining, cells were fixed in 100% methanol at −20° C. for 10 min followed by permeabilization for 30 min in PBS containing 0.1% Triton X-100 at room temperature. Cells were reacted with anti-HP1α antibody for 1 h at room temperature, washed with PBS four times, and stained with secondary antibody for 1 h. Fluorescence intensity plots of anti-histone H3K4me3, anti-ATF-2 pT69/71 and anti-HP1α antibody and PI staining (see FIGS. 18B, 19B, and 20B, respectively) were generated using Fluoview version 4.3 software (Olympus, Tokyo). […]

Row | SMILES | tyrosine phosphorylation throughout the cell (3 mM Na3VO4 for 3 h, FIG. 23) | tyrosine phosphorylation within the nucleus (Na3VO4, in situ extraction with 0.5% Triton X-100 before fixation, FIGS. 24 and 25) | basal levels of tyrosine phosphorylation (10 μM PP2 or 100 nM wortmannin for 24 h, FIG. 22) | tyrosine phosphorylation in Na3VO4-treated cells (10 μM PP2 pretreatment 21 h, then 3 mM Na3VO4 3 h, FIG. 23) | Na3VO4-induced increase in nuclear tyrosine phosphorylation (PP2 plus Na3VO4, in situ extraction with 0.5% Triton X-100, FIGS. 24 and 25)
1 | [Na+].[Na+].[Na+].[O]=[V]([O-])([O-])[O-] [Na3VO4, sodium orthovanadate] | greatly increased | increase in tyrosine phosphorylation induced by Na3VO4 was clearly visible | – | – | –
2 | CC(C)(C)n1nc(-c2ccc(Cl)cc2)c2c(N)ncnc21 [PP2] | – | – | significantly reduce | decreased | significantly inhibited
